Laboratory results as given in patent US12091386B2, “D-amphetamine compounds, compositions, and processes for making and using the same” (Zevra Therapeutics, Inc., priority 2018, dated 2024).

Assay: Intravenous pharmacokinetic study in rats (tail vein injection)
Format: in vivo, rat
Conditions: FIG. 10, versus isonicotinate analogue

## CCOC(=O)c1ccc[n+](COC(=O)N[C@@H](C)Cc2ccccc2)c1 [AMP-CO2CH2-nicotinate(Et), d-amphetamine-CO2CH2-nicotinate ethyl ester]
  exposure to d-amphetamine after intravenous administration compared to AMP-CO2CH2-isonicotinate(Et): decreases exposure to d-amphetamine
